Laboratory results published in ChEMBL document CHEMBL5291721, “A preclinical secondary pharmacology resource illuminates target-adverse drug reaction associations of marketed drugs” (Nat Commun, 2023).

Legend:
Vasopressin V1a receptor = Vasopressin V1a receptor (Homo sapiens, UniProt P37288)
Adenosine receptor A2a = Adenosine receptor A2a (Homo sapiens, UniProt P29274)
[1] = target: T1, Prostaglandin G/H synthase 1 (Rattus norvegicus, UniProt Q63921); format: functional
T1 sequence (Q63921 whole entry): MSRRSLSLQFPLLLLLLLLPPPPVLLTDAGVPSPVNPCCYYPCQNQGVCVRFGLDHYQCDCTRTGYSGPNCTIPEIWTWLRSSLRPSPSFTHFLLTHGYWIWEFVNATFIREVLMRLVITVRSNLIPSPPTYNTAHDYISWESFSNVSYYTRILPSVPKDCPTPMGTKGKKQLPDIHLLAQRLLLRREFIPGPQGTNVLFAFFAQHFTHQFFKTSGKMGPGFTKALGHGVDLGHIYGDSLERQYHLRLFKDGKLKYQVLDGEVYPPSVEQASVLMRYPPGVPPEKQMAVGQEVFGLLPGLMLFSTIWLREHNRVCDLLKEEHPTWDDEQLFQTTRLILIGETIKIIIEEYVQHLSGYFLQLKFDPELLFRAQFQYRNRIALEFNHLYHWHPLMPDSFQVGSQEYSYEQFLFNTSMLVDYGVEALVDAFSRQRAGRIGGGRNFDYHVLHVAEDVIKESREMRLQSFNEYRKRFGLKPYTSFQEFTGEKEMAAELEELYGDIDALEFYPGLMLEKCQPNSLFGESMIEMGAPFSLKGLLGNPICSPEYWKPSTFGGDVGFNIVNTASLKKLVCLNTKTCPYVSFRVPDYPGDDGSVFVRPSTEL

[2] = target: T2, Type-1 angiotensin II receptor (Homo sapiens, UniProt P30556)
T2 sequence (P30556 whole entry): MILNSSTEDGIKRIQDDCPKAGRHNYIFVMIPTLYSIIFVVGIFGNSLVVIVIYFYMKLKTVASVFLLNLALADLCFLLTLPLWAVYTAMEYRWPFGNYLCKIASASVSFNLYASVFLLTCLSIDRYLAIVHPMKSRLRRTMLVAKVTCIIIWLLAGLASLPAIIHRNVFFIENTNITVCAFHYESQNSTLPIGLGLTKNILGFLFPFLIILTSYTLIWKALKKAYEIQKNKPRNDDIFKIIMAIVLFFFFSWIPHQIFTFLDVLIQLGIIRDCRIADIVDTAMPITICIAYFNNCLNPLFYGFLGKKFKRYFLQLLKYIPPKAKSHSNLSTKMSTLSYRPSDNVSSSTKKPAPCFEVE

[3] = target: 5-hydroxytryptamine receptor 2B (Homo sapiens, UniProt P41595); format: functional, cell-based
[4] = target: T3, Alpha-2A adrenergic receptor (Homo sapiens, UniProt P08913); format: functional, cell-based
T3 sequence (P08913 whole entry): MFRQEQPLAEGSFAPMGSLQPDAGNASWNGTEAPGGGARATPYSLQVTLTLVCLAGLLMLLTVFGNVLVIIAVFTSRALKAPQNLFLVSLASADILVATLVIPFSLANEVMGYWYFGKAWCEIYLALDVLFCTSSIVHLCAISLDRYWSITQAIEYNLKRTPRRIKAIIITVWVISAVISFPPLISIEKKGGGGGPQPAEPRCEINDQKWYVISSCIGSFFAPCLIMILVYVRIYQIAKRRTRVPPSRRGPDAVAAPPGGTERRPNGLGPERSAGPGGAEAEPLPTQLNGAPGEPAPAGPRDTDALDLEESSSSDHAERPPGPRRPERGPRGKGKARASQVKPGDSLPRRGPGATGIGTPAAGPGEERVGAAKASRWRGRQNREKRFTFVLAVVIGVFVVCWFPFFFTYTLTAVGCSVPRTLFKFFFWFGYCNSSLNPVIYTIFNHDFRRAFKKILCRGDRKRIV

Adenosine receptor A1 = target: T4, Adenosine receptor A1 (Homo sapiens, UniProt P30542)
T4 sequence (P30542 whole entry): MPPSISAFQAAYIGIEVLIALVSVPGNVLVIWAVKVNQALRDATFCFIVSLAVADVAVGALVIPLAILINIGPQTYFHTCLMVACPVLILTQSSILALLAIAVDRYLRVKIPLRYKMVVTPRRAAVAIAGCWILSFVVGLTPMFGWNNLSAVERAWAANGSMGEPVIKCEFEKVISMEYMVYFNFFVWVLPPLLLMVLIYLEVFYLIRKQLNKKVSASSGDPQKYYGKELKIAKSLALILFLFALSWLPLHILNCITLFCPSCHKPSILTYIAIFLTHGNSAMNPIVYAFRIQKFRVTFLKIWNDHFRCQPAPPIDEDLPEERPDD

Progesterone receptor = target: T5, Progesterone receptor (Homo sapiens, UniProt P06401); format: functional
T5 sequence (P06401 whole entry): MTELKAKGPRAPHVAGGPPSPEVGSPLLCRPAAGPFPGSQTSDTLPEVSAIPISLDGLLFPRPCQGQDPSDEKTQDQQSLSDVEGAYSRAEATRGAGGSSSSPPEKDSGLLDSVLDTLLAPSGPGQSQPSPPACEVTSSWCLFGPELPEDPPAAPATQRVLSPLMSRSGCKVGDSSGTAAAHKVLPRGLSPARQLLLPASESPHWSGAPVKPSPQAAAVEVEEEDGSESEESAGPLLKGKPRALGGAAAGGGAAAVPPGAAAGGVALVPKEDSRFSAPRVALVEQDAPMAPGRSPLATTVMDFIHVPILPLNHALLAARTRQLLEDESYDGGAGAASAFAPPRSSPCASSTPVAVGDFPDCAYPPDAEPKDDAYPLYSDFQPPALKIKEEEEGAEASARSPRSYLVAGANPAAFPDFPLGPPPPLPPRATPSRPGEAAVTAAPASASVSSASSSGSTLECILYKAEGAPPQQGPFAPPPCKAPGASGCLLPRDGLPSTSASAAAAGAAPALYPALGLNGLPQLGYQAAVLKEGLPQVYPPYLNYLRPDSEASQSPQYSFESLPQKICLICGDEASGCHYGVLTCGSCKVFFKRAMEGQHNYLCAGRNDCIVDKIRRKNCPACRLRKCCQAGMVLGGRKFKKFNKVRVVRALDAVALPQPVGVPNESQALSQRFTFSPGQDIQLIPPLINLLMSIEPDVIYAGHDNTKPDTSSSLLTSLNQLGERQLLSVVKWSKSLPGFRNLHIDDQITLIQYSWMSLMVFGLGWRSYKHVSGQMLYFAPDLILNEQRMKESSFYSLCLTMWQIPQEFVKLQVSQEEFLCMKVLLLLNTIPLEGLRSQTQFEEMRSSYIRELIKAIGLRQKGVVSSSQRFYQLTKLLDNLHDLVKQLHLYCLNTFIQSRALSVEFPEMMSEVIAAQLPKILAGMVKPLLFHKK
Also: assay procedure not described here.

Chain of 5-hydroxytryptamine receptor 2B (P41595 whole entry): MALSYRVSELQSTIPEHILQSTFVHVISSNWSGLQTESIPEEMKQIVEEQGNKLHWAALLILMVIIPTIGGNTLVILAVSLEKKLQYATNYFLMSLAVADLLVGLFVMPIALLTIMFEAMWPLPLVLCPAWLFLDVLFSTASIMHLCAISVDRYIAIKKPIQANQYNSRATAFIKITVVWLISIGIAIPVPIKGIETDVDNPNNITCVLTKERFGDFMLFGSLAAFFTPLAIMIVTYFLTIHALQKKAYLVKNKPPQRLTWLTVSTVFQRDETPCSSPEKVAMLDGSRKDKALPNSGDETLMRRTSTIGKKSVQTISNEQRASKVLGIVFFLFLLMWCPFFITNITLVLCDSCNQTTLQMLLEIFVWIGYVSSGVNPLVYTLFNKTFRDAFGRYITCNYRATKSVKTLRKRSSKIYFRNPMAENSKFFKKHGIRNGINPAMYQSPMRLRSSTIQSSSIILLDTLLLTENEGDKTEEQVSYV
Chain of Adenosine receptor A2a (P29274 whole entry): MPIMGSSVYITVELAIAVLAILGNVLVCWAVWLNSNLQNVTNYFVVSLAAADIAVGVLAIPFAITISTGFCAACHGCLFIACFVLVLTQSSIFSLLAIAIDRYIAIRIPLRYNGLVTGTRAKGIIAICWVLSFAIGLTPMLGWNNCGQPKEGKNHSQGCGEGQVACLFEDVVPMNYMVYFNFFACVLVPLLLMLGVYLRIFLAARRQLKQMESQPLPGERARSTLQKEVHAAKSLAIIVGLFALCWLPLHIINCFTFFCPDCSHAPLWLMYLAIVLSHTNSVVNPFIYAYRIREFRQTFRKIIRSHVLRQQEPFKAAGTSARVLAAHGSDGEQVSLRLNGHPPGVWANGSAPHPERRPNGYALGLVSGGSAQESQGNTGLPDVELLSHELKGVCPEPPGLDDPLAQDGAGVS
Chain of Vasopressin V1a receptor (P37288 whole entry): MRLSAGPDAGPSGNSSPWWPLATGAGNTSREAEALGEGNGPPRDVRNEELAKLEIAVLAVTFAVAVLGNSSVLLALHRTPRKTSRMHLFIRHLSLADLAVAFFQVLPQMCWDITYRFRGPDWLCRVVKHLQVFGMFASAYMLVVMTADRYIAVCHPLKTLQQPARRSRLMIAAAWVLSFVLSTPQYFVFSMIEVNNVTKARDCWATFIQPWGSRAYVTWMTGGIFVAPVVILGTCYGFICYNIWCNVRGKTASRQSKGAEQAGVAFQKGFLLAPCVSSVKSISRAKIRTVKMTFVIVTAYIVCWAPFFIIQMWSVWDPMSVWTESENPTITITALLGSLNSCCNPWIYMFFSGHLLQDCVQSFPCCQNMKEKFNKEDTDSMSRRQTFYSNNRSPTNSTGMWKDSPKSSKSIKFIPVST

SMILES | AC50 (Vasopressin V1a receptor) [µM] | AC50 (Adenosine receptor A2a) [µM] | AC50 [1] [µM] | AC50 [2] [µM] | AC50 [3] [µM] | AC50 [4] [µM] | AC50 (Adenosine receptor A1) [µM] | AC50 (Progesterone receptor) [µM]
CN1CC(=O)N2[C@H](c3ccc4c(c3)OCO4)c3[nH]c4ccccc4c3C[C@@H]2C1=O | > 30 | > 30 | > 30 | > 30 | > 10 | > 10 | > 30 | 
C=C1CC[C@@]2(O)[C@H]3Cc4ccc(O)c5c4[C@@]2(CCN3CC2CC2)[C@H]1O5 | > 30 | > 30 | > 30 | > 30 | > 30 | > 30 | > 30 | > 30
CN1CCc2cccc3c2[C@H]1Cc1ccc(O)c(O)c1-3 [APOMORPHINE] | > 30 | > 30 | 20.4 | > 30 | > 10 | > 10 | > 30 | 
CC(C)c1c(C(=O)Nc2ccccc2)c(-c2ccccc2)c(-c2ccc(F)cc2)n1CC[C@@H](O)C[C@@H](O)CC(=O)O [ATORVASTATIN] | > 30 | > 30 | > 30 | > 30 |  | > 10 | > 30 | 
NC(CO)C(=O)NNCc1ccc(O)c(O)c1O (configuration not stated) [BENSERAZIDE] | > 30 | > 30 | > 30 | > 30 | > 10 | > 10 | > 30 | 
CN(C)C(=O)OC1N=C(c2ccccc2)c2cc(Cl)ccc2N(C)C1=O (configuration not stated) [CAMAZEPAM] | > 10 | > 30 | > 30 | > 30 | > 10 | > 10 | > 30 | 
CC(C)C(=O)OCC(=O)[C@@]12O[C@H](C3CCCCC3)O[C@@H]1C[C@H]1[C@@H]3CCC4=CC(=O)C=C[C@]4(C)[C@H]3[C@@H](O)C[C@@]12C [CICLESONIDE] | > 10 | > 30 | > 10 | > 10 | > 10 | > 10 | > 30 | 
CN1C(=O)CC(=O)N(c2ccccc2)c2cc(Cl)ccc21 [CLOBAZAM] | > 10 | > 10 | > 10 | > 10 | > 10 | > 10 | > 10 | > 10
[H]/N=C(/N)c1ccc(NCc2nc3cc(C(=O)N(CCC(=O)O)c4ccccn4)ccc3n2C)cc1 [DABIGATRAN] | > 30 | > 30 | > 30 | > 30 | > 30 | > 30 | > 30 | > 30
CCCCOc1cc(C(=O)NCCN(CC)CC)c2ccccc2n1 [DIBUCAINE] | > 30 | > 30 | > 10 | > 10 | > 10 | > 10 | > 30 | > 10
CN[C@@H](C)[C@H](O)c1ccccc1 [EPHEDRINE] | > 10 | > 30 | > 30 | > 30 | > 10 | > 10 | > 30 | 
CCNC(C)Cc1cccc(C(F)(F)F)c1 (configuration not stated) [FENFLURAMINE] | > 10 | > 30 | > 30 | > 30 |  |  | > 30 | 
CCN1CCC[C@H]1CNC(=O)c1cc(S(N)(=O)=O)ccc1OC [LEVOSULPIRIDE] | > 30 | > 30 | > 30 | > 30 | > 10 | > 10 | > 30 | 
COc1ccccc1OCC(O)COC(N)=O (configuration not stated) [METHOCARBAMOL] |  | > 10 | > 10 | > 30 | > 10 | > 10 | > 10 | > 30
Cc1cc(-c2ccccc2)nnc1NCCN1CCOCC1 [MINAPRINE] | > 10 | > 30 | > 30 | > 30 | > 10 | > 10 | > 30 | 
NC(=O)C[S+]([O-])C(c1ccccc1)c1ccccc1 (configuration not stated) [MODAFINIL] | > 10 | > 30 | > 30 | > 30 | > 10 | > 10 | > 30 | 
CC(Cc1ccccc1)NCCC(c1ccccc1)c1ccccc1 (configuration not stated) [PRENYLAMINE] | > 30 | > 30 | > 30 | > 30 | > 10 | > 10 | > 30 | 
CCN(CC)CCOC(=O)c1ccc(N)cc1 [PROCAINE] |  | > 30 | > 30 | > 30 | > 10 | > 10 | > 30 | 
C1COC(NC(C2CC2)C2CC2)=N1 [RILMENIDINE] | > 30 | > 30 | > 30 | > 30 | > 10 | 1.31 | > 30 | 
C#CCN(C)[C@H](C)Cc1ccccc1 [SELEGILINE] |  | > 10 | > 10 | > 10 | > 10 | > 10 | > 10 | > 10
Cc1c(C(=O)Nc2ccc(N3C[C@@H](C)O[C@@H](C)C3)nc2)cccc1-c1ccc(OC(F)(F)F)cc1 [SONIDEGIB] | > 10 | > 30 | > 30 | > 30 |  |  | > 30 | 
CN[C@@H]1[C@H](O)[C@H](NC)[C@H]2O[C@@]3(O)C(=O)C[C@@H](C)O[C@H]3O[C@@H]2[C@H]1O [SPECTINOMYCIN] |  | > 10 | > 10 | > 10 | > 30 | > 10 | > 10 | > 10
